Earlier results, collected in patent publication US9675546B2, “Method of treating atrophic vaginitis” (priority 2006, dated 2017).
Like-named read-outs stand apart in the source and are kept apart here.

How the values were obtained:
[1] = not given; remark: listed apart in the source
[2] = tested on: breast cancer risk; conditions: progestogen combined with estrogens in HRT users
[3] = not given; remark: listed apart in the source
[4] = single oral dose of 20 mg tamoxifen

Compound	Cardiovascular Events (in vivo)	Glucose/Insulin (in vivo)	Lipid Profile (in vivo)	Liver function (in vivo)	Sleep and Mood (in vivo)	Time to steady state concentrations after initiation of therapy ([1]; oral)	Average steady state plasma concentration ([1]; oral, once daily for 3 months) [ng/mL]	Average peak plasma concentration [1, 4] [ng/mL]	Time of peak plasma concentration after dosing [1, 4]	Risk of breast cancer (RR) [2]	Serum concentration ([3]; 25 mg progesterone vaginal suppository) [ng/mL]	Serum concentration ([3]; 50 mg progesterone vaginal suppository) [ng/mL]	Quality of life/menopausal symptoms: women with significant improvement in symptoms (MP-containing HRT compared with MPA-containing regimen)
CC(=O)O[C@]1(C(C)=O)CC[C@H]2[C@@H]3C[C@H](C)C4=CC(=O)CC[C@]4(C)[C@H]3CC[C@@]21C [MPA, Medroxyprogesterone Acetate]	MPA: may cause fluid retention and edema, increases incidence	MPA: has been found to cause deterioration of glucose tolerance	MPA: adversely effects lipid profile and negates the beneficial	MPA: contraindicted in patients with liver dysfunction.	MPA: can cause insomnia, mental depression, and anxiety.	–	–	–	–	–	–	–	–
CC/C(=C(\c1ccccc1)c1ccc(OCCN(C)C)cc1)c1ccccc1 [tamoxifen, 1-(p-dimethylamino-ethoxphenyl)-2-ethyl-1,2-diphenylethylene]	–	–	–	–	–	about 4 weeks	122	40	approximately 5 hours	–	–	–	–
CC(=O)[C@H]1CC[C@H]2[C@@H]3CCC4=CC(=O)CC[C@]4(C)[C@H]3CC[C@]12C [progesterone, pregn-4-ene-3, 20-dione]	MP: has antihypertensive action and can be safely used to treat	MP: augments the pancreatic response to glucose and increases	–	MP: does not effect liver enzymes or cause livie related side	MP: improves the quality of sleep and has sedative properties.	–	–	–	–	0.9	7.27	8.84	symptoms in 80%.
